Results published in patent US20250281561A1, “APPLICATION OF LYCIUM BARBARUM LEAF EXTRACT IN PREPARING DRUG FOR TREATING DIABETIC RETINOPATHY” (NANJING UNIVERSITY OF CHINESE MEDICINE, priority 2025, published 2025).

How the values were obtained:
[1] = tested on: ARPE-19 cells with high glucose-induced damage; assay: ROS content (H2FCDA fluorescence) in ARPE-19 cells with high glucose-induced damage; type: cell-based; conditions: high dose 10 g/mL, low dose 1 μg/mL, compared with model group
Method: (§1) The ARPE-19 cells were cultured in DMEM/F12 culture medium containing 10% FBS and 1% penicillin/streptomycin at 37° C. under 5% CO2. A model group was treated with 300 mM glucose, and the culture medium was added with a corresponding drug to culture the cells for 48 hours to complete the modeling.
The cells were inoculated into a 96-well plate during culture, and divided into a Con group, a Mod group, a ST-H group, a ST-L group, a CT-H group, a CT-L group, a FT-H group, a FT-L group, a DT-H group, a DT-L group, a SWJ-H group, and a SWJ-L group, wherein the high dose was […] and the low dose was 1 μg/mL. After the culture was completed, the culture medium was discarded, and a culture medium containing 1/1000 H2FCDA was added to incubate the cells at 37° C. for 30 minutes. A photo was taken by a fluorescence microscope at an excitation wavelength of 488 nm, and a fluorescence intensity was analyzed by ImageJ.

[2] = tested on: p38, ERK and JNK genes in a MAPK pathway; assay: qPCR gene expression level (p38, ERK, JNK) in DR zebrafish; type: in vivo; conditions: crude drug dosage high 40 μg/mL, low 20 μg/mL, three days, compared with model group
Method: (§2) 3dpf zebrafish embryos were cultured in a 6-well plate, with 30 zebrafish embryos in each well. A model group and an administration group were cultured in 100 mg/mL circulating water, and divided into a Con group, a Mod group, a metformin (MET) group, a ST-H group, a ST-L group, a CT-H group, a CT-L group, a FT-H group, a FT-L group, a DT-H group, a DT-L group, a SWJ-H group, and a SWJ-L group. An administration dosage for the MET group was 200 μg/ml, and a crude drug dosage was converted for other administration groups, wherein a high dose was 40 μg/mL, and a low dose was 20 μg/mL. The zebrafish embryos were cultured for three days, and the water was replaced at a fixed time every day.
The cultured zebrafish embryos were collected into Ep tubes, and each tube was added with 1 mL of TRIZOL and then homogenized, and centrifuged at 4° C. and 12000× g for 10 minutes. A supernatant was taken, and other operations were as described in 2.3.

DR zebrafish [3] = assay: Kit detection of glucose content and oxidative stress level (GSH, SOD, MDA) in DR zebrafish; type: in vivo
Method: as §2
Wild A/B-type zebrafish embryos were cultured according to the above method, and then the zebrafish embryos were collected into Ep tubes and then homogenized, and centrifuged at 4000 rpm for 10 minutes. A supernatant was taken, and GLU and GSH levels and SOD and MDA activities in cells were detected according to a kit instruction.

[4] = tested on: ARPE-19 cells with high glucose-induced damage; assay: CCK8 survival rate of ARPE-19 cells with high glucose-induced damage; type: cell-based; conditions: 300 mM glucose, 48 hours; high dose 10 μg/mL, low dose 1 μg/mL; compared with model group
Method: Preparation method of active ingredient solution of Lycium barbarum leaf: 1 mg of freeze-dried powder of different active ingredients of Lycium barbarum leaf (Lycium barbarum leaf water extract, Lycium barbarum leaf ethanol extract, refined Lycium barbarum leaf extract, Lycium barbarum polysaccharide, and betaine) prepared in Embodiment 1 was weighed respectively, and dissolved in 1 mL of DMEM/F12 culture medium to prepare 1 mg/mL solution, and the solution was diluted to a required concentration with DMEM/F12 culture medium during administration, and filtered with a […] filter for sterilization. […]
The cells were inoculated into a 96-well plate during culture, and divided into a control group (Con group), a model group (Mod group), a high-dose Lycium barbarum leaf water extract group (ST-H group), a low-dose Lycium barbarum leaf water extract group (ST-L group), a high-dose Lycium barbarum leaf ethanol extract group (CT-H group), a low-dose Lycium barbarum leaf ethanol extract group (CT-L group), […], a low-dose Lycium barbarum polysaccharide group (DT-L group), a high-dose betaine group (SWJ-H group), and a low-dose betaine group (SWJ-L group), wherein the high dose was 10 μg/mL and the low dose was 1 μg/mL. […] An absorbance was measured at 450 nm, and a cell survival rate was calculated.

[5] = tested on: ARPE-19 cells with high glucose-induced damage; assay: Kit detection of oxidative stress level (GSH, SOD, MDA) in ARPE-19 cells with high glucose-induced damage; type: cell-based; conditions: summary statement
Method: Preparation method of active ingredient solution of Lycium barbarum leaf: 1 mg of freeze-dried powder of different active ingredients of Lycium barbarum leaf (Lycium barbarum leaf water extract, Lycium barbarum leaf ethanol extract, refined Lycium barbarum leaf extract, Lycium barbarum polysaccharide, and betaine) prepared in Embodiment 1 was weighed respectively, and dissolved in 1 mL of DMEM/F12 culture medium to prepare 1 mg/mL solution, and the solution was diluted to a required concentration with DMEM/F12 culture medium during administration, and filtered with a […] filter for sterilization.
as §1
The cells were inoculated into a 6-well plate during cell culture, and divided into a Con group, a Mod group, a ST-H group, a ST-L group, a CT-H group, a CT-L group, a FT-H group, a FT-L group, a DT-H group, a DT-L group, a SWJ-H group, and a SWJ-L group, wherein the high dose was 10 μg/mL and the low dose was 1 μg/mL. […] A GSH level, and SOD and MDA activities in the cells were detected according to a kit instruction.

DR zebrafish [6] = assay: Retinal vascular diameter in DR zebrafish (fli1: EGFP, fluorescence microscope, ImageJ); type: in vivo; conditions: crude drug dosage high 40 μg/mL, low 20 μg/mL, three days, compared with model group
Method: as §2
3dpf fli1: EGFP zebrafish embryos were cultured by the method as described in 2.4, and 0.003% phenylthiourea (PTU) was added into circulating water to inhibit melanogenesis of the zebrafish embryos. After the culture was completed, the zebrafish embryos were collected, and fixed on a glass slide. The retinal vessels in the zebrafish were photographed by a fluorescence microscope, and a retinal vascular diameter was measured by ImageJ.

[7] = tested on: p38, ERK and JNK genes in a MAPK pathway; assay: qPCR gene expression level (p38, ERK, JNK) in ARPE-19 cells with high glucose-induced damage; type: cell-based; conditions: 10 μg/mL, compared with model group
Method: as §1
The cells were inoculated into a 6-well plate during cell culture, and divided into a Con group, a Mod group, a ST group, a CT group, a FT group, a DT group, and a SWJ group, wherein the administration dosage was 10 μg/mL. The cells were collected into Ep tubes and centrifuged at 1000 rpm for 5 minutes, and a supernatant was discarded. Each tube was added with 1 ml of Trizol reagent and blown violently for 15 seconds to mix fully and evenly, and the mixture was allowed to stand at room temperature for 2-3 minutes, and rotated at 4° C. for 1-2 hours. […] A concentration was determined by an ultra-micro ultraviolet spectrophotometer, and then the mixture was stored in a refrigerator at −80° C. for later use. […]
The reaction system was mixed fully and evenly, added to a 96-well PCR plate, centrifuged, and determined by a PCR machine. […] A CT value of a sample was determined, and then relative expressions of p38, JNK and ERK in the sample were calculated by a 2-ΔΔCT method.

C[N+](C)(C)CC(=O)O [betaine]
ROS content (ROS fluorescence intensity) [1]: significantly reduce the generation of ROS
relative mRNA expressions of p38, ERK and JNK [2]: down-regulate expression levels
oxidative stress (DR zebrafish [3]; DR zebrafish model, summary statement): improve oxidative stress
glucose content (DR zebrafish [3]; DR zebrafish, crude drug dosage high 40 μg/mL, low 20 μg/mL, three days, compared with model group): reduce a glucose content in vivo
survival rate of ARPE-19 cells [4]: improve a survival rate
oxidative stress [5]: improve oxidative stress
retinal vascular diameter (DR zebrafish [6]): significantly reduce a retinal vascular diameter
relative mRNA expressions of p38, ERK and JNK [7]: down-regulate expression levels
